# Laboratory results from US4329453A, “Cephalosporin antibiotic” (Glaxo Group Limited, priority 1979, dated 1982).
# Counter-ions that a name gives are not always drawn.
# Assays:
# stability = type: physicochemical
# Text: These properties render the hydrate of value in pharmaceutical use.
# The salts for use in the preparation of the new pentahydrate according to the invention may be prepared by a process disclosed in the above-mentioned U.K. Patent Specification No. 2025398, i.e. by a process corresponding to the method above mentioned.
# Providence = assay: activity against Providence; type: cell-based
# [1] = system: β-lactamase-producing gram-negative strains; conditions: as described in U.K. Patent Specification No. 2025398; cited from earlier work
# gram-negative organisms = conditions: as described in U.K. Patent Specification No. 2025398; cited from earlier work
# early clinical results = type: in vivo, human
# Pseudomonas organisms = assay: activity against Pseudomonas organisms; type: cell-based
# bacteria [2] = conditions: as described in U.K. Patent Specification No. 2025398; cited from earlier work
# [3] = especially at elevated temperatures, U.K. Patent Specification No. 2025398; cited from earlier work
# nephrotoxicity in rats = type: in vivo; conditions: dosages of 2.0 g/kg
# [4] = pharmacokinetic studies in human volunteers
# [5] = acute toxicity tests in mice; conditions: mouse, in vivo
# indole-positive Proteus = assay: activity against indole-positive Proteus; type: cell-based
# Serratia = assay: activity against Serratia; type: cell-based
# gram-negative bacteria = assay: experimental infections in mice with gram-negative bacteria; type: in vivo
# bacteria [6] = assay: antibiotic activity in vitro (broad spectrum); type: cell-based
# [7] = distribution and levels in small rodents after subcutaneous injection; type: in vivo
# Pseudomonas aeruginosa = assay: experimental infections in mice with Pseudomonas aeruginosa; type: in vivo
# pathogenic bacteria = assay: antibiotic properties of the crystalline pentahydrate; type: cell-based; conditions: compared with compound (I)
smiles,measurement,setting,value
"CC(C)(O/N=C(\C(=O)N[C@@H]1C(=O)N2C(C(=O)[O-])=C(C[n+]3ccccc3)CS[C@H]12)c1csc(N)n1)C(=O)O [bishydrochloride, (6R,7R)-7-[(Z)-2-(2-Aminothizol-4-yl)-2-(2-carboxyprop-2-oxyimino)acetamidol]-3-(1-pyridiniummethyl)ceph-3-em-4-carboxylate bishydrochloride]",stability of crystalline bishydrochloride,stability; crystallised from acetone and formic acid,highly stable
"CC(C)(O/N=C(\C(=O)N[C@@H]1C(=O)N2C(C(=O)[O-])=C(C[n+]3ccccc3)CS[C@H]12)c1csc(N)n1)C(=O)O [ceftazidime, (6R,7R)-7-[(Z)-2-(2-aminothiazol-4-yl)-2-(2-carboxyprop-2-oxyimino)acetamido]-3-(1-pyridiniummethyl)ceph-3-em-4-carboxylate]",activity against Providence,Providence,excellent activity
same,activity against β-lactamase-producing gram-negative strains,[1],unusually high activity
same,activity against gram-negative organisms,gram-negative organisms,unusually high activity
same,antibiotic properties in the clinic,early clinical results,reproduces in the clinic the excellent antibiotic properties
same,activity against Pseudomonas organisms,Pseudomonas organisms,excellent activity
same,broad spectrum antibiotic activity,bacteria [2],broad spectrum antibiotic activity
same,stability of amorphous solid,[3],not particularly satisfactory
same,nephrotoxicity,nephrotoxicity in rats,No nephrotoxicity has been observed
same,pharmacokinetic properties,[4],good pharmacokinetic properties
same,serum half-life,[4],long
same,serum levels after injection,[4]; injection,high and long lasting serum levels
same,LD50,[5],> 6000 mg/kg
same,activity against indole-positive Proteus,indole-positive Proteus,excellent activity
same,activity against Serratia,Serratia,excellent activity
same,treatment of experimental infections with gram-negative bacteria,gram-negative bacteria,successfully treated
same,bactericidal action,bacteria [6]; at concentrations close to the minimum inhibitory concentration,rapidly bactericidal
same,effect of human serum on antibacterial properties,bacteria [6]; human serum,not impaired by human serum
same,effect of increased inocula,bacteria [6]; increased inocula,low
same,distribution in the bodies of small rodents,[7],well distributed
same,levels after subcutaneous injection,[7]; subcutaneous injection,useful therapeutic levels
same,protection against strains of Pseudomonas aeruginosa,Pseudomonas aeruginosa,excellent protection
same,protection compared with treatment with an aminoglycoside such as amikacin,Pseudomonas aeruginosa; versus amikacin,comparable
"CC(C)(O/N=C(\C(=O)N[C@@H]1C(=O)N2C(C(=O)[O-])=C(C[n+]3ccccc3)CS[C@H]12)c1csc(N)n1)C(=O)O [crystalline pentahydrate, (6R, 7R)-7-[(Z)-2-(2-aminothiazol-4-yl)-2-(2-carboxyprop-2-oxyimino)acetamido]-3-(1-pyridiniummethyl)ceph-3-em-4-carboxylate pentahydrate]",crystallinity and stability (quality),stability; new hydrate,superior quality
same,stability on storage,stability; stored at 50° C. for an extended period,remarkably stable
same,antibiotic properties,pathogenic bacteria,exhibits the antibiotic properties of the above-mentioned compound (I)
